One data set has as its system Liver microsomes. The data set can be described thus: Intrinsic clearance in human liver microsomes. Type of data set: ADME, Microsome.
Data set [1] deals with High affinity cGMP-specific 3',5'-cyclic phosphodiesterase 9A (Homo sapiens) (UniProt O76083). As to the kind of experiment: Inhibition of PDE9A (unknown origin) at 2 uM.
In data set [2] the target is 3',5'-cyclic-AMP phosphodiesterase 4D (Homo sapiens) (UniProt Q08499). The data set can be described thus: Inhibition of PDE4D (unknown origin) at 2 uM.
Chain of 3',5'-cyclic-AMP phosphodiesterase 4D (Homo sapiens) (Q08499 whole entry): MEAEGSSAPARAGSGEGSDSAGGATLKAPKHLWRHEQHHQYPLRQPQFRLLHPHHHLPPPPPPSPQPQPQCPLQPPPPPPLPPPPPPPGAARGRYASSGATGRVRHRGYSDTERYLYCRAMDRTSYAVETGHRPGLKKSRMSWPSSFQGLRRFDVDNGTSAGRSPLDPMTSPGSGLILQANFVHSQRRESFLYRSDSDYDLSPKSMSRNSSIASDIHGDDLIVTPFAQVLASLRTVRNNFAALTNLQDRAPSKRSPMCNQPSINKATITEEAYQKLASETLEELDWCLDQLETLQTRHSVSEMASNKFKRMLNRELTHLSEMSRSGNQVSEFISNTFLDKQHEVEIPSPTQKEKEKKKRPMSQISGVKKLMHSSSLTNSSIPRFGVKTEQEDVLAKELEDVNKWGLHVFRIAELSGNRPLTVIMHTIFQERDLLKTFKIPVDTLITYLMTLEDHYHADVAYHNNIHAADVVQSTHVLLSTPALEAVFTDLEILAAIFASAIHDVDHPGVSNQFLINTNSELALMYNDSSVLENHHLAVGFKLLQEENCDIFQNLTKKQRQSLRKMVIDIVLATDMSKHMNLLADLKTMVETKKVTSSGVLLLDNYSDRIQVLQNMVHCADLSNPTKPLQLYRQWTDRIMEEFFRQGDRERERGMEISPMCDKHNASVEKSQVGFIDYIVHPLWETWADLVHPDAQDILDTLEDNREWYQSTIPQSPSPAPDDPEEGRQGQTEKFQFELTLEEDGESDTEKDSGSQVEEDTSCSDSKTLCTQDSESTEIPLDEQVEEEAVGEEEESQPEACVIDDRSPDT
The target in data set [3] is cGMP-inhibited 3',5'-cyclic phosphodiesterase 3A (Homo sapiens) (UniProt Q14432). The data set can be described thus: Inhibition of PDE3A (unknown origin) at 2 uM.
Chain of cGMP-inhibited 3',5'-cyclic phosphodiesterase 3A (Homo sapiens) (Q14432 whole entry): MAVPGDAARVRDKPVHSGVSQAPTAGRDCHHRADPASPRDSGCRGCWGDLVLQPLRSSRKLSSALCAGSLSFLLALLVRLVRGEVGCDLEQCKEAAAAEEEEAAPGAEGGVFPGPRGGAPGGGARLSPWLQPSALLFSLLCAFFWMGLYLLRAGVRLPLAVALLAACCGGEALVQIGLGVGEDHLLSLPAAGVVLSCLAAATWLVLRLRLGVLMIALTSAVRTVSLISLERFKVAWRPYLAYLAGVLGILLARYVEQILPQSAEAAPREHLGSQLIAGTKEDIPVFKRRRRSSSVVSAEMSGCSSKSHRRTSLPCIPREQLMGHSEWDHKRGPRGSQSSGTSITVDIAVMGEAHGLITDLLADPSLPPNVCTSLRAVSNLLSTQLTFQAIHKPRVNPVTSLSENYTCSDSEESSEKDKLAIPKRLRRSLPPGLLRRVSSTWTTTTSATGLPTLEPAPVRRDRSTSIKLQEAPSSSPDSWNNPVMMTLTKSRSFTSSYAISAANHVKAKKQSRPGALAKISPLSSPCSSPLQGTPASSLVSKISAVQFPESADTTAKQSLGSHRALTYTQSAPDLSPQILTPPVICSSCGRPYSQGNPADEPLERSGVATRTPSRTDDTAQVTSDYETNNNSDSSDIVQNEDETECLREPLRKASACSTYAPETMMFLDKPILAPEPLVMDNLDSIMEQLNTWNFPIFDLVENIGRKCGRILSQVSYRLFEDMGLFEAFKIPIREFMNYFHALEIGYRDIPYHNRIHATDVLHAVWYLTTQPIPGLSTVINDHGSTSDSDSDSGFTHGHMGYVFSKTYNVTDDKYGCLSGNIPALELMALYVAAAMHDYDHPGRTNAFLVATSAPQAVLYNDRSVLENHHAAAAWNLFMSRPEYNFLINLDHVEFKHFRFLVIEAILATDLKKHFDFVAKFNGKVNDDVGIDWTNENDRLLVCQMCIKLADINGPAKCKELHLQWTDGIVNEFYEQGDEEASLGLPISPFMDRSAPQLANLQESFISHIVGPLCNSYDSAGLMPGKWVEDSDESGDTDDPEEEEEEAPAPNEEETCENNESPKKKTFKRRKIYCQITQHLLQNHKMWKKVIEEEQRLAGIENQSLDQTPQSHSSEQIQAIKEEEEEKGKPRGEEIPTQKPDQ
Data set [4] deals with T1, cAMP and cAMP-inhibited cGMP 3',5'-cyclic phosphodiesterase 10A (Homo sapiens, UniProt Q9Y233). As to the kind of experiment: Inhibition of PDE10A (unknown origin) at 2 uM.
T1 sequence (Q9Y233 whole entry): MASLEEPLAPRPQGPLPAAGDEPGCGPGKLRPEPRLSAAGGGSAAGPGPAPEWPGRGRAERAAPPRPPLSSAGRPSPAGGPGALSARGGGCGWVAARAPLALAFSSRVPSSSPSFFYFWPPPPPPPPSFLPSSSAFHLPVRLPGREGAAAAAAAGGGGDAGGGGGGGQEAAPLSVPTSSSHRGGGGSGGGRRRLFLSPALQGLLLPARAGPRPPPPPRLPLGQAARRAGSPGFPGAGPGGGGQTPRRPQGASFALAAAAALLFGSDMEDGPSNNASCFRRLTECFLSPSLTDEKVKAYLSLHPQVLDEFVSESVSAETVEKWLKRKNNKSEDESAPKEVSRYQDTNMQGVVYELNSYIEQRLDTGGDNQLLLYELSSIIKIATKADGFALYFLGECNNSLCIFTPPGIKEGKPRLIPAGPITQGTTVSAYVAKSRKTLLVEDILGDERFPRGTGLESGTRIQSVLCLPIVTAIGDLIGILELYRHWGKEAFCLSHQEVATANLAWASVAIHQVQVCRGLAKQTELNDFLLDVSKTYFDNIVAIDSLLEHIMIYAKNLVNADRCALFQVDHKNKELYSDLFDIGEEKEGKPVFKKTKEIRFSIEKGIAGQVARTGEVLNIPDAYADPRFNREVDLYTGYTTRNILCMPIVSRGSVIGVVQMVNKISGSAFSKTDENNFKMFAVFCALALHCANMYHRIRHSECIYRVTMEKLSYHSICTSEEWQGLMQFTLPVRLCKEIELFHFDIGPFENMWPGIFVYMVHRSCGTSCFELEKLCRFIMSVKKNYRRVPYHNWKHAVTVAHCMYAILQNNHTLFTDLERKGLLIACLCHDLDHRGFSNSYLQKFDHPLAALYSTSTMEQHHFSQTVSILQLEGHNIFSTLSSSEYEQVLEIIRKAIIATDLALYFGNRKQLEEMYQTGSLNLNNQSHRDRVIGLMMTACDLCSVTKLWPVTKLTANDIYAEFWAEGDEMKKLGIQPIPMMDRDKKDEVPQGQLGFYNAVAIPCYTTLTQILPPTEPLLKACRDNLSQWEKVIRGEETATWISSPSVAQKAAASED
The target in data set [5] is cGMP-dependent 3',5'-cyclic phosphodiesterase (Homo sapiens) (UniProt O00408). The data set can be described thus: Inhibition of PDE2 (unknown origin) at 2 uM.
Chain of cGMP-dependent 3',5'-cyclic phosphodiesterase (Homo sapiens) (O00408 whole entry): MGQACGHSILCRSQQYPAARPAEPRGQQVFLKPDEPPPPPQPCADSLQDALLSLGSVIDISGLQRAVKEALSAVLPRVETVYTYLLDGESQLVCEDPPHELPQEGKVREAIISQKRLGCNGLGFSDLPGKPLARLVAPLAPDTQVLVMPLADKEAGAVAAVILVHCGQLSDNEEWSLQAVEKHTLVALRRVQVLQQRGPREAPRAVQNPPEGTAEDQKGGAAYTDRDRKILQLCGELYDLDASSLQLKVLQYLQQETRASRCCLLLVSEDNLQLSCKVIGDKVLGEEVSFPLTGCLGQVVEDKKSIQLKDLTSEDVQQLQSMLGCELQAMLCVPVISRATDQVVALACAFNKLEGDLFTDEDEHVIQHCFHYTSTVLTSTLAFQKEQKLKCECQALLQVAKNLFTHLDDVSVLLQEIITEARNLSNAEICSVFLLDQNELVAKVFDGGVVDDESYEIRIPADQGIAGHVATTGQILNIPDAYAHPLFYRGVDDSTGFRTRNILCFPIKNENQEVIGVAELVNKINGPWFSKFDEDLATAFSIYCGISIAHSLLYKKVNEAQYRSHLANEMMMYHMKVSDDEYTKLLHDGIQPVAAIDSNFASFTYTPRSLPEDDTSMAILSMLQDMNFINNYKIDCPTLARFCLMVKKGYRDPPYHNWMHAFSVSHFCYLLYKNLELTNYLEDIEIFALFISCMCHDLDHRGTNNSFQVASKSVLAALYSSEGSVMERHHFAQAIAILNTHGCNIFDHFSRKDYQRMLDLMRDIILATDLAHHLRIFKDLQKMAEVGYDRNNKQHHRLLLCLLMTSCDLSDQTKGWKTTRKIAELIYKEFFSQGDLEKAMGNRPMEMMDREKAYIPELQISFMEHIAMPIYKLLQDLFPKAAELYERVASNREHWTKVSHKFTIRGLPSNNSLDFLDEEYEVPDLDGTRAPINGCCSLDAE
Data set [6] concerns the target T1, cAMP and cAMP-inhibited cGMP 3',5'-cyclic phosphodiesterase 10A. As to the kind of experiment: Inhibition of PDE10A (unknown origin).
The species named for the next data set is Homo sapiens. As to the kind of experiment: Selectivity ratio of IC50 for PDE (unknown origin) to IC50 for PDE10A (unknown origin).
The species entered for a further data set is Rattus norvegicus. As to the kind of experiment: Antipsychotic activity in rat assessed as inhibition of amphetamine-stimulated locomotor activity. It is filed as functional.
The nature of data set [7]: Ratio of drug uptake in brain to plasma in rat. Type of data set: ADME. As to conditions: read-out: BPR.
For data set [8], the target named is Voltage-gated inwardly rectifying potassium channel KCNH2 (Homo sapiens, UniProt Q12809). As to the kind of experiment: Inhibition of human ERG.

Chain of High affinity cGMP-specific 3',5'-cyclic phosphodiesterase 9A (Homo sapiens) (O76083 whole entry): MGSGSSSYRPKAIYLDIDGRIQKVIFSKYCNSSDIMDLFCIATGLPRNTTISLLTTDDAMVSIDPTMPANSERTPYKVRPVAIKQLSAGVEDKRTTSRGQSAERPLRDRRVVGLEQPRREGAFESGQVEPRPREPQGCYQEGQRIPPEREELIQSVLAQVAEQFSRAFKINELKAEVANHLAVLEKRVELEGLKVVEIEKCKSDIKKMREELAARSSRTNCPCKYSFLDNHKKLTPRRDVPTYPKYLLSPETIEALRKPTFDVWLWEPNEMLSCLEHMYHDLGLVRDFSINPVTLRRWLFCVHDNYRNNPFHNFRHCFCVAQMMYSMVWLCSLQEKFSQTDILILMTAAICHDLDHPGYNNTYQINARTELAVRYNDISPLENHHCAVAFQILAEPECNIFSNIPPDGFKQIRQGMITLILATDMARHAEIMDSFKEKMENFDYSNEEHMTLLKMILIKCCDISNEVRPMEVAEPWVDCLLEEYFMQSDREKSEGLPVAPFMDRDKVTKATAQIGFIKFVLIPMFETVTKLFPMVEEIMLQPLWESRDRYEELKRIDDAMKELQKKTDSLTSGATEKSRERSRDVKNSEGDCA

As a reminder, the inhibition is the change of the read-out against control, counted positive when it falls. In general, IC50 refers to the point on the concentration scale where inhibition reaches its midpoint. Low readings indicate higher potency, high ones lower potency. The compound `CN(C(=O)c1ccc(OCc2ccc3ccccc3n2)cc1)c1ccc2ncsc2c1` yielded a CLH with Liver microsomes of 6.1 L/min. Besides, the inhibition worked out at 7% in [1]; 13% in [2]; 12% in data set [3]; 105% in [4]; 15% in [5]. The compound also showed an IC50 in data set [6] of 16 nM.

One may read the ED50 as the dose that gives a 50% effect, or the effect in half of the subjects. For the compound `CN(C(=O)c1ccncc1)c1ccc(OCc2ccc3ccccc3n2)cc1`, the Ratio IC50 in the data set listed under Homo sapiens is greater than 50. Besides, the 50% effective dose (ED50) in the data set filed under Rattus norvegicus stood at 60 mg/kg. Also, the Kp in data set [7] amounted to 0.6. In addition, the figures for the IC50 in data set [8] and in data set [6] were greater than 50000 nM and 250 nM, respectively. The compound also had a CLH with Liver microsomes of 1.1 L/min. Further, the inhibition in [1] came to 22%; in [2] it was 4%; in [3] it was 16%; in [4], 80%; in data set [5], 14%.

Take `CN(C(=O)c1cc(-c2ccccc2)n[nH]1)c1ccc(OCc2ccc3ccccc3n2)cc1`: in data set [4], the inhibition turned out to be 102%. The IC50 in [6] worked out at 24 nM.

For `CN(C(=O)c1cc(-c2ccccn2)n[nH]1)c1ccc(OCc2ccc3ccccc3n2)cc1`, the CLH with Liver microsomes is given as 2.4 L/min. Also, the inhibition in data set [1] turned out to be 0%; in data set [2], 0%; in data set [3], 0%; in data set [4], 100%; in data set [5], 12%. The half-maximal inhibitory concentration (IC50) in [6] worked out at 12 nM.

Consider `CN(C(=O)c1cccnc1)c1ccc(OCc2ccc3ccccc3n2)cc1`, for which, in data set [4], the inhibition came out at 62%.

`CN(C(=O)c1ccc2ncsc2c1)c1ccc(OCc2ccc3ccccc3n2)cc1`: the CLH in the data set with Liver microsomes is given as 2.2 L/min. Moreover, the inhibition in data set [1] worked out at 5%; in data set [4], 101%; in data set [5] it was 1%. The same compound yielded a half-inhibitory concentration (IC50) in data set [6] of 31 nM.

As for `CCCCN(C(=O)c1ccncc1)c1ccc(OCc2ccc3ccccc3n2)cc1`, the midpoint of inhibition in [6], the IC50, lay at 660 nM.

In the case of `CN(C(=O)c1cnc(-c2ccncc2)s1)c1ccc(OCc2ccc3ccccc3n2)cc1`, in [4], the inhibition is 101%. Besides, the midpoint of inhibition in data set [6], the IC50, lay at 88 nM.

With `O=C(Nc1ccc(OCc2ccc3ccccc3n2)cc1)c1ccncc1`, the inhibition in [4] is 33%.

For `CN(C(=O)c1cc(-c2cccnc2)n[nH]1)c1ccc(OCc2ccc3ccccc3n2)cc1`, in data set [4], the inhibition stood at 101%. The same compound showed an IC50 in [6] of 13 nM.

Turning to `CN(C(=O)c1ccc(OCc2ccc3ccccc3n2)cc1)c1ccn2ncnc2c1`, the inhibition in data set [4] came to 100%. Besides, in [6], 400 nM corresponded to half-maximal inhibition (IC50).

Regarding `Cc1cccc(COc2ccc(N(C)C(=O)c3ccc4ncsc4c3)cc2)n1`, the inhibition in [4] was found to be 90%. Moreover, the IC50 in [6] turned out to be 1600 nM.

As to `CN(C(=O)c1ccc(OCc2ccc3ccccc3n2)cc1)c1ccc2nccn2c1`, the inhibition in data set [4] amounted to 105%. In addition, the midpoint of inhibition in [6], the IC50, lay at 130 nM.

In the case of `CN(C(=O)c1ccccc1)c1ccc(OCc2ccc3ccccc3n2)cc1`, the inhibition in data set [4] came to 96%. The compound also yielded an IC50 in [6] of 660 nM.

`CN(C(=O)c1cnc(-c2cccnc2)s1)c1ccc(OCc2ccc3ccccc3n2)cc1`: in data set [4], the inhibition came out at 103%. In addition, in data set [6], it took 87 nM to reach half-maximal inhibition (IC50).

Consider `CN(C(=O)c1ccc(OCc2ccc3ccccc3n2)cc1)c1ccccc1`, for which the inhibition in data set [4] was found to be 94%. In [6], the midpoint of inhibition, the IC50, lay at 950 nM.

As to `CN(C(=O)c1ccccn1)c1ccc(OCc2ccc3ccccc3n2)cc1`, the inhibition in data set [4] was 27%.

On to `CN(C(=O)c1ccc2ncsc2c1)c1ccc(OCc2nc3ccccc3o2)cc1`, for which the inhibition in data set [4] amounted to 98%. This compound also gave a 50% inhibitory concentration (IC50) in data set [6] of 920 nM.

On to `CN(C(=O)c1ccc(OCc2ccc3ccccc3n2)cc1)c1ccc2ncoc2c1`, for which the inhibition in data set [4] was 105%. In addition, inhibition in data set [6] was half-maximal at 93 nM (IC50).

With `Cn1cc(-c2ccncc2)c(-c2ccc(OCc3ccc4ccccc4n3)cc2)n1` [MARDEPODECT], in the data set filed under Rattus norvegicus, the ED50 is 1.8 mg/kg. Also, in the data set on Liver microsomes, the CLH was 2.2 L/min.

Turning to `CN(C(=O)c1ccc(OCc2ccc3ccccc3n2)cc1)c1ccncc1`, the inhibition in data set [4] turned out to be 101%. The same compound yielded an IC50 in [6] of 140 nM.

As to `CN(C(=O)c1ccc(OCc2ccc3ccccc3n2)cc1)c1ccc2ncnn2c1`, in data set [4], the inhibition stood at 101%. This compound also displayed a half-maximal inhibitory concentration (IC50) in data set [6] of 240 nM.

On to `CN(C(=O)c1ccc(-n2ccnc2)cc1)c1ccc(OCc2ccc3ccccc3n2)cc1`, for which the inhibition in [4] turned out to be 98%. Also, the IC50 in data set [6] was 460 nM.

`CN(C(=O)c1ccncc1)c1ccc(OCc2cn3ccccc3n2)cc1`: the inhibition in data set [4] was found to be 88%. For the same compound, the half-maximal inhibitory concentration (IC50) in [6] came out at 1600 nM.

Regarding `CN(C(=O)c1cc(-c2ccncc2)n[nH]1)c1ccc(OCc2ccc3ccccc3n2)cc1`, in data set [4], the inhibition worked out at 99%. Also, in data set [6], the IC50 is 110 nM.

On to `CCN(C(=O)c1ccncc1)c1ccc(OCc2ccc3ccccc3n2)cc1`, for which 750 nM corresponded to half-maximal inhibition in [6] (IC50).

Take `CN(C(=O)c1ccc2ncsc2c1)c1ccc(OCc2nc3ccccc3n2C)cc1`: the inhibition in data set [4] was found to be 104%. Further, the IC50 in [6] stood at 61 nM.

Source of the values: ChEMBL document CHEMBL2417495, “N-Methylanilide and N-methylbenzamide derivatives as phosphodiesterase 10A (PDE10A) inhibitors” (Bioorg Med Chem, 2013).
